{"source": "patent US9556237B2", "about": "(priority 2012, dated 2017)", "system": "Vero E6 cells", "note": "Peptide text beside a SMILES is read from it."}
{"smiles": "CSCC[C@H](N)C(=O)N[C@@H](Cc1ccccc1)C(=O)N[C@@H](CC(C)C)C(=O)NCC(=O)N[C@@H](Cc1c[nH]c2ccccc12)C(=O)N[C@@H](CO)C(=O)N[C@@H](Cc1ccccc1)C(=O)N[C@@H](CC(=O)O)C(=O)N[C@@H](Cc1ccccc1)C(=O)NCC(=O)N[C@@H](CO)C(=O)N[C@@H](CC(C)C)C(=O)N[C@@H](Cc1c[nH]c2ccccc12)C(=O)NCC(=O)N[C@@H](CC(N)=O)C(=O)N[C@@H](CCCCN)C(=O)N1CCC[C@H]1C(=O)N[C@@H](Cc1c[nH]c2ccccc12)C(=O)N[C@@H](Cc1ccccc1)C(=O)O", "note": "[RVFV-6sc, MFLGWSFDFGSLWGNKPWF, reference compound] (H-MFLGWSFDFGSLWGNKPWF-OH)", "values": [{"measurement": "impact on cell proliferation (MTT assay)", "value": "little negative impact on cell proliferation"}]}
